The target of the experiment is T1, Cra (FruR) protein of Pseudomonas putida (Cra^PP) (Pseudomonas putida, UniProt Q88PQ6).
T1 sequence (Q88PQ6 1-331): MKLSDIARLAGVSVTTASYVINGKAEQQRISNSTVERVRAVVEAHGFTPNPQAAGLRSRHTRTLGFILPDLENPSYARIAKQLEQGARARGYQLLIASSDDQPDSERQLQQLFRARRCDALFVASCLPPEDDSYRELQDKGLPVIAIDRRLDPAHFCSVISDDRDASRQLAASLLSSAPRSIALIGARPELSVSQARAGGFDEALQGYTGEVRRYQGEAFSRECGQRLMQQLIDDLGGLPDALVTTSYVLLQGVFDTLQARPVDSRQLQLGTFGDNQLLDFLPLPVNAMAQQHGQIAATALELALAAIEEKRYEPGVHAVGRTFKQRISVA
The experiment in a line: ITC with purified Cra. Type of experiment: binding.

Usually Kd stands for a measure of binding affinity in units of concentration. Higher therefore signals lower affinity. In the case of `O=P(O)(O)OCC1(O)O[C@H](CO)[C@@H](O)[C@@H]1O` (stereo partly shown) [F1P, fructose 1-phosphate], the dissociation constant (Kd) is approximately 200 nM.

Source of the values: paper PMC4050194 (FEBS Open Bio, 2014).
